Data from publication PMC4074510 (Neuron, 2014).

How the values were obtained:
SGK1 = target: T1, SGK1 (Homo sapiens, UniProt O00141); test: KINOMEscan competitive binding at […]; settings: read-out: % binding remaining at 10 μM
T1 sequence (O00141 1-431): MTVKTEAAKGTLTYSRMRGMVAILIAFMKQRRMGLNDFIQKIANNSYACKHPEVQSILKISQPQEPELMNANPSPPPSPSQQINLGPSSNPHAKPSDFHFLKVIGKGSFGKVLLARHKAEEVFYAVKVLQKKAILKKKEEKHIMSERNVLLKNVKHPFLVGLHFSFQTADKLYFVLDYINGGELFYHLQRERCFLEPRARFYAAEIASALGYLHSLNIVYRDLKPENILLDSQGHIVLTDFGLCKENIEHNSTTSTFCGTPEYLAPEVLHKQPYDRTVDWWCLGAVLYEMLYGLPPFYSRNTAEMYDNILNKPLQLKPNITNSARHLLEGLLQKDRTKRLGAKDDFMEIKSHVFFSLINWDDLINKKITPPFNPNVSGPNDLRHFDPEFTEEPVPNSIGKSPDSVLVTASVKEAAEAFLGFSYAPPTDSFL

PIP5K1C = PIP5K1C (Homo sapiens, UniProt O60331); test: microfluidic mobility shift assay with fluorescein-PI; format: biochemical
[1] = target: T2, PIP4K2C (Phosphatidylinositol-5-phosphate 4-kinase, type II, gamma) (Homo sapiens, UniProt Q8TBX8); test: KINOMEscan competitive binding assay, dose-response
T2 sequence (Q8TBX8 2-421): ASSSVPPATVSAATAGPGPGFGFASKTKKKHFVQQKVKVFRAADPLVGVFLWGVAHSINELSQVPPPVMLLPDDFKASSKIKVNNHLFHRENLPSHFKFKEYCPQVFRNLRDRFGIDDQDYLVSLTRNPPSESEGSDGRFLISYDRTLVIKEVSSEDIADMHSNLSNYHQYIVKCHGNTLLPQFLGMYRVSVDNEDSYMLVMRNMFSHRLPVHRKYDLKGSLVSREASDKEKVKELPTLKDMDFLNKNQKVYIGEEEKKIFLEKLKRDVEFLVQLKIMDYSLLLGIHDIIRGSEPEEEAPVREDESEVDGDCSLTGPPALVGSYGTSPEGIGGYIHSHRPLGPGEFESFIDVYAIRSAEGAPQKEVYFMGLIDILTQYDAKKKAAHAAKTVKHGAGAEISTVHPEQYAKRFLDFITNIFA

Chain of PIP5K1C (O60331 whole entry): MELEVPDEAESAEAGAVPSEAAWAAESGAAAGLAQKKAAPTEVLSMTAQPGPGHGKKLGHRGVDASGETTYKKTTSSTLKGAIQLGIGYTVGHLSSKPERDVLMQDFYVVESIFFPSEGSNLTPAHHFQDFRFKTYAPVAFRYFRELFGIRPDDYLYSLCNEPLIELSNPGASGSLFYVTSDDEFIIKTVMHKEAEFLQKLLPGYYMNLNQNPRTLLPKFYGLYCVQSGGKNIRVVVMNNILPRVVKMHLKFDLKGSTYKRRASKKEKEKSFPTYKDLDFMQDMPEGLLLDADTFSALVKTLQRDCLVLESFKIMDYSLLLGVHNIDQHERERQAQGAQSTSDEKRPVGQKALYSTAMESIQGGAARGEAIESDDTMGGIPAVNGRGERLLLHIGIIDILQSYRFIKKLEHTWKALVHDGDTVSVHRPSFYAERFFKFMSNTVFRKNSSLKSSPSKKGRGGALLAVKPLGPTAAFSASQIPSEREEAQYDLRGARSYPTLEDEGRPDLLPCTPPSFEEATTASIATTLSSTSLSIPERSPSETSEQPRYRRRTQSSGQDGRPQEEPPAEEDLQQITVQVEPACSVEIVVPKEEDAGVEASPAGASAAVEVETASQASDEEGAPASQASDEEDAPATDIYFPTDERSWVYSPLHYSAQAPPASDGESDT

remaining binding at 10 µM (SGK1): 8% | IC50 (PIP5K1C): ~41 nM | Kd [1]: < 200 nM
Compound: NC(=O)c1nc(Nc2ccccc2)sc1NC(=O)C1CCCCC1 [UNC3230, 5-(cyclohexanecarboxamido)-2-(phenylamino)thiazole-4-carboxamide]
